According to patent publication US20030087774A1, “Fragrance compositions for the CO2 washing process” (priority 2001, published 2003):

Test: CO2 wash test of model fragrance A on cotton fabric (supercritical fluid extractor, GC FID)
Assay type: physicochemical
Settings: for fraction left on fabric: from the wash test of Table 2; for % Left on Fabric: supercritical CO2 43° C., 77 bar, density 0.25 g/ml, cotton fabric
Method: The device used for this experiment was an Hewlett Packard 7680T SFE Supercritical Fluid Extractor. 1 g of cotton fabric was put into a 7 ml Thimble. 0.01 grams of the model fragrance A was applied to the uppermost part of the fabric representing the earliest stage of the CO2 cleaning process.
The CO2 properties used were: density=0.25 g/ml, pressure=77 bar (Pc=73.8 bar), temperature=43° C. These were supercritical as the Critical Temperature for CO2 is 31.1° C.
CO2 was introduced into the thimble and allowed to soak for 2 min. The thimble was flushed with CO2 for 5 min at a flow rate of 2 ml/min. The CO2/fragrance mixture was carried into the trap where the CO2 was evaporated leaving the fragrance on the analytical trap packing being maintained at −30 deg C. The trap was rinsed with Acetone. The fragrance/acetone mixture was analyzed using gas chromatography with flame ionization detection (GC FID).
The results on the GC FID were used to calculate the % of each fragrance ingredient that was retained on the fabric. (90% means that 90% of the fragrance was substantive on the fabric).

Row | Compound | fraction left on fabric | % Left on Fabric
1 | CC(=O)O[C@@H]1C[C@H]2CC[C@]1(C)C2(C)C (racemic) [Iso Bornyl Acetate] | 0.741 | 74%
2 | CCCCC/C(C=O)=C/c1ccccc1 [Amyl Cinnamic Aldehyde] | 0.83 | 85%
3 | CC(=O)OCc1ccccc1 [Benzyl Acetate] | 0.799 | 80%
4 | O=C(OCc1ccccc1)c1ccccc1O [Benzyl Salicylate] | 0.908 | 91%
5 | C[C@@H]1CC[C@H]2C(C)(C)[C@H]3C[C@@]12CC[C@@]3(C)O [Cedrol] | 0.839 | 84%
6 | CC(=O)O[C@]1(C)CC[C@@]23C[C@@H]1C(C)(C)[C@@H]2CC[C@H]3C [Cedryl Acetate] | 0.834 | 83%
7 | O=c1ccc2ccccc2o1 [Coumarin] | 0.945 | 94%
8 | CCOC(=O)c1ccccc1C(=O)OCC [Diethyl Phthalate] | 0.807 | 81%
9 | C=CC(C)CCCC(C)(C)O (centres unmarked) [Dihydro Myrcenol] | 0.737 | 74%
10 | CC(=O)OC(C)(C)Cc1ccccc1 [Dimethyl Benzyl Carbinyl Acetate] | 0.689 | 69%
11 | O=C1CCCCCCCCCCCC(=O)OCCO1 [Ethylene Brassylate] | 0.928 | 93%
12 | C=CCc1ccc(O)c(OC)c1 [Eugenol] | 0.794 | 79%
13 | CC(C)=CCC/C(C)=C/CO [Geraniol, Supra] | 0.769 | 77%
14 | CC(C)=CCCC(C)CCO (centres unmarked) [Gitronellol 950, Citronellol 950] | 0.763 | 76%
15 | CCCCCCC(C=O)=Cc1ccccc1 [Hexyl Cinnamic Aldehyde] | 0.863 | 86%
16 | CC(CC=O)CCCC(C)(C)O (centres unmarked) [Hydroxy Citronellal P] | 0.846 | 85%
17 | CC(=O)/C=C/C1C(C)=CCCC1(C)C (stereo not drawn) [Ionone, Alpha] | 0.729 | 73%
18 | CC(C)CCOC(=O)c1ccccc1O [Iso Amyl Salicylate] | 0.759 | 76%
19 | CC(C=O)Cc1ccc(C(C)(C)C)cc1 (centres unmarked) [Lilial] | 0.781 | 78%
20 | C=C(C)[C@H]1CC=C(C)CC1 [Limonene D] | 0.977 | 98%
21 | CC(=O)c1c(C)c([N+](=O)[O-])c(C(C)(C)C)c([N+](=O)[O-])c1C [Musk Ketone] | 0.905 | 91%
22 | CC(=O)OC1CCC(C(C)(C)C)CC1 (centres unmarked) [Oryclon/Vertenex] | 0.687 | 69%
23 | CC(=O)OCCc1ccccc1 [Phenyl Ethyl Acetate] | 0.698 | 70%
24 | OCCc1ccccc1 [Phenyl Ethyl Alcohol] |  | 83%
25 | CC1=CCC2CC1C2(C)C (stereo not drawn) [Pinene, Alpha, alpha-Pinene] | 0.989 | 99%
26 | C=C1CCC2CC1C2(C)C (stereo not drawn) [Pinene, Beta, beta-Pinene] | 0.995 | 100%
27 | CC(=O)OCC=C(C)C [Prenyl acetate] | 0.969 | 97%
28 | Methyl Ionone Gamma Coeur |  | 74%
29 | Terpineol, Pure | 0.691 | 69%
